Two molecules from patent US20140194498A1, “POLYISOPRENYLATED TETRACYCLIC XANTHONE WITH ANTICANCER ACTIVITY” (Hong Kong Baptist University, priority 2013, published 2014) can be followed below.

The test system of data set [1] is MCF-7 (human breast adenocarcinoma). The data set is classed as cell-based. The source says:
(§1) Cytotoxicity Assay. […] Paclitaxel was used as positive control. […] Journal of Natural Products 2012.

Data set [2] concerns MDA-MB-231 (human breast adenocarcinoma). Type of data set: cell-based.
From the text: as §1

For data set [3], the system named is HepG2 (human hepatocellular carcinoma). The method, then:
(§2) To determine the cytotoxicity of garciesculentone B, its IC50 values on HepG2, SMMC-7721, MCF-7, and MDA-MB-231 cell lines are measured. […] In addition, further study is taken to test whether garciesculentone B can exert effects on cell motility. A wound healing assay using ECA109 cells is performed in this regard.
(§3) Cytotoxicity Assay. Cytotoxic activitiy of garciesculentone B were evaluated by MTT assay using SMMC-7721 (human hepatocellular carcinoma), HepG2 (human hepatocellular carcinoma), MCF-7 (human breast adenocarcinoma), and MDA-MB-231 (human breast adenocarcinoma). Paclitaxel was used as positive control. The detailed methodology for cytotoxicity assay has already been described in Xia, Z.-X.; Zhang, D.-D.; Liang, S.; Lao, Y.-Z.; Zhang, H.; Tan, H.-S.; Chen, S.-L.; Wang, X.-H.; Xu, H.-X., Bioassay-Guided Isolation of Prenylated Xanthones and Polycyclic Acylphloroglucinols from the Leaves of Garcinia nujiangensis. Journal of Natural Products 2012.

Data set [4] concerns SMMC-7721 (human hepatocellular carcinoma). Put plainly: cells. The method, then: as §2, §3
The test system of data set [5] is human esophageal carcinoma (ECA109) cells. The data set is described as follows: Wound healing assay. The data set is classed as cell-based. The method, then:
Wound healing assay. A wound healing assay was performed by using a modified procedure described previously in Jones, J. I.; Gockerman, A.; Busby, W. H., Jr.; Wright, G.; Clemmons, D. R., Insulin-like growth factor binding protein 1 stimulates cell migration and binds to the alpha 5 beta 1 integrin by means of its Arg-Gly-Asp sequence. Proc Natl Acad Sci USA 1993, 90 (22), 10553-7. Briefly, cells were plated in 24 wells plate at 70% confluence in conditioned medium. 24 hours after seeding the monolayers were wounded by scoring with a sterile plastic 20 μL micropipette tip, then rinsed several times with media to remove cell debris and then incubated in completed medium in the absence or presence of tested compounds (10 and 20 μg/mL) for various periods of time up to 36 hours. Cell migration into the wound surface was monitored by Olympus IX71 microscopy and digitally photographed.

“Also recorded” adds a separate entry of the source. Like-named read-outs stand apart in the source and are kept apart here.

As to garciesculentone B, the IC50 in data set [1] is 23.7 µM; in data set [2], 33.9 µM; in data set [3], 31.4 µM; in data set [4], 11.8 µM. In data set [5] (10 and 20 μg/mL), the “Cell migration into the wound area (antimigration effect)” value is on record as “significant delay in cells moving into the wound area; also recorded: shows antimigration effect on ECA109 cells”. The Wound closure result in data set [5] (up to 36 hours, control wound edges indistinguishable by 36 hours) is “do not migrate into and completely close the wound”.
`CC(=O)O[C@H]1C(=O)[C@@]2(C)[C@H]([C@H](OC(=O)c3ccccc3)[C@]3(O)C[C@H](OC(=O)[C@H](O)[C@@H](NC(=O)c4ccccc4)c4ccccc4)C(C)=C1C3(C)C)[C@]1(OC(C)=O)CO[C@@H]1C[C@@H]2O` [Palcitaxel, Paclitaxel, reference compound]: in data set [4] (Homo sapiens, SMMC-7721, read-out: Cytotoxicity IC50, SMMC-7721), the IC50 worked out at 0.0091 µM.

By IC50 is commonly meant the midpoint of a concentration-inhibition curve.
